# Experimental data reported in patent publication US20240190890A1, “MK2 INHIBITORS AND USES THEREOF” (Bristol-Myers Squibb Company, priority 2022, published 2024).
# Target: p38a activated, mitogen-activated protein kinase-activated protein kinase 2 (MAPKAP-K2 or MK2) enzyme (Homo sapiens (Human), UniProt P49137)
# Experiment: MK2 Omnia continuous-read kinase assay for compound potency
# Assay type: biochemical
# Conditions: [MK-2]=0.4 nM, [ATP]=10 μM, [ST3-Sox]=10 μM; room temperature
# Procedure, shortened: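 p38a-activated MK2 (0.4 nM) with 10 μM ATP (apparent Km) and 10 μM S/T3-Sox peptide in Tris pH 7.5 buffer with MgCl2, EGTA and DTT. Fluorescence (ex360/em485) read continuously for 120 min at room temperature. IC50 from initial linear slopes; apparent kinact/KI from kobs of exponential progress-curve fits.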
# Chain of p38a activated, mitogen-activated protein kinase-activated protein kinase 2 (MAPKAP-K2 or MK2) enzyme (P49137 whole entry): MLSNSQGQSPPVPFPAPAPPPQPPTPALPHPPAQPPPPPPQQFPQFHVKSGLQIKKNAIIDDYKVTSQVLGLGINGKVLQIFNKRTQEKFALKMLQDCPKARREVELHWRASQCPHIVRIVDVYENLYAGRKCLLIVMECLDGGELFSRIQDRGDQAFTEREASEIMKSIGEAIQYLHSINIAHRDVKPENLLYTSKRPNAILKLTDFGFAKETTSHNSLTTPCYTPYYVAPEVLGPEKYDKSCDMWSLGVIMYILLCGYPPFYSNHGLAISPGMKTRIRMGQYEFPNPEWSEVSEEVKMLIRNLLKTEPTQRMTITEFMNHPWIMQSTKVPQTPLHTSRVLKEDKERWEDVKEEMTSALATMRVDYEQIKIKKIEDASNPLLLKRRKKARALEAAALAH
row,IC50 [nM],Structure (SMILES)
1,1000,"C=C(C)c1ncc(COCC)c(-c2ccc3c(ccc4sc5c(c43)NC[C@@H](C)NC5=O)n2)n1 [Example I-50, (R)-3-(5-(ethoxymethyl)-2-(prop-1-en-2-yl)pyrimidin-4-yl)-10-methyl-9,10,11,12-tetrahydro-8H-[1,4]diazepino[5′,6′:4,5]thieno[3,2-f]quinolin-8-one]"
2,10,"C=Cc1cc(-c2ccc3c(ccc4sc5c(c43)NC[C@@H](C)NC5=O)n2)cc(N2CCNCC2)n1 [Example I-175, (R)-10-methyl-3-(2-(piperazin-1-yl)-6-vinylpyridin-4-yl)-9,10,11,12-tetrahydro-8H-[1,4]diazepino[5′,6′:4,5]thieno[3,2-f]quinolin-8-one]"
3,11,"C[C@@H]1CNc2c(sc3ccc4nc(-c5ccnc(/C=C/CN(C)C)c5)ccc4c23)C(=O)N1 [Example I-114, (R,E)-3-(2-(3-(dimethylamino)prop-1-en-1-yl)pyridin-4-yl)-10-methyl-9,10,11,12-tetrahydro-8H-[1,4]diazepino[5′,6′:4,5]thieno[3,2-f]quinolin-8-one]"
4,460,"C=C(F)c1cccc(-c2ccc3c(ccc4sc5c(c43)NC[C@@H](C)NC5=O)n2)n1 [Example I-90, (R)-3-(6-(1-fluorovinyl)pyridin-2-yl)-10-methyl-9,10,11,12-tetrahydro-8H-[1,4]diazepino[5′,6′:4,5]thieno[3,2-f]quinolin-8-one]"
5,43,"C[C@@H]1CNc2c(sc3ccc4nc(-c5cc(Cl)nc(N6CCN(C)CC6)c5)ccc4c23)C(=O)N1 [Example I-94, (R)-3-(2-chloro-6-(4-methylpiperazin-1-yl)pyridin-4-yl)-10-methyl-9,10,11,12-tetrahydro-8H-[1,4]diazepino[5′,6′:4,5]thieno[3,2-f]quinolin-8-one]"
6,2,"C[C@@H]1CNc2c(sc3ccc4nc(-c5cc(Cl)ncn5)ccc4c23)C(=O)N1 [Example I-11, (R)-3-(6-chloropyrimidin-4-yl)-10-methyl-9,10,11,12-tetrahydro-8H-[1,4]diazepino[5′,6′:4,5]thieno[3,2-f]quinolin-8-one]"
7,184,"C#Cc1cc(-c2ccc3c(ccc4sc5c(c43)NC[C@@H](C)NC5=O)n2)cc(N2CCC2)n1 [Example I-180, (R)-3-(2-(azetidin-1-yl)-6-ethynylpyridin-4-yl)-10-methyl-9,10,11,12-tetrahydro-8H-[1,4]diazepino[5′,6′:4,5]thieno[3,2-f]quinolin-8-one]"
8,39,"C[C@@H]1CNc2c(sc3ccc4nc(-c5cc(CO)nc(Cl)n5)ccc4c23)C(=O)N1 [Example I-84, (R)-3-(2-chloro-6-(hydroxymethyl)pyrimidin-4-yl)-10-methyl-9,10,11,12-tetrahydro-8H-[1,4]diazepino[5′,6′:4,5]thieno[3,2-f]quinolin-8-one]"
9,4,"C=Cc1cc(-c2ccc3c(ccc4sc5c(c43)NC[C@@H](C)NC5=O)n2)c(C(F)F)cn1 [Example I-130, (R)-3-(5-(difluoromethyl)-2-vinylpyridin-4-yl)-10-methyl-9,10,11,12-tetrahydro-8H-[1,4]diazepino[5′,6′:4,5]thieno[3,2-f]quinolin-8-one]"
10,39,"C#Cc1cc(-c2ccc3c(ccc4sc5c(c43)NC[C@@H](C)NC5=O)n2)c(F)cn1 [Example I-71, (R)-3-(2-ethynyl-5-fluoropyridin-4-yl)-10-methyl-9,10,11,12-tetrahydro-8H-[1,4]diazepino[5′,6′:4,5]thieno[3,2-f]quinolin-8-one]"
11,28,"C=Cc1cc(-c2ccc3c(ccc4sc5c(c43)NC[C@@H](C)NC5=O)n2)c(OCCN2CCCC2)nn1 [Example I-118, (R)-10-methyl-3-(3-(2-(pyrrolidin-1-yl)ethoxy)-6-vinylpyridazin-4-yl)-9,10,11,12-tetrahydro-8H-[1,4]diazepino[5′,6′:4,5]thieno[3,2-f]quinolin-8-one]"
12,5,"C#Cc1cc(-c2ccc3c(ccc4sc5c(c43)NC[C@@H](C)NC5=O)n2)ncn1 [Example I-38, (R)-3-(6-ethynylpyrimidin-4-yl)-10-methyl-9,10,11,12-tetrahydro-8H-[1,4]diazepino[5′,6′:4,5]thieno[3,2-f]quinolin-8-one]"
